From patent publication US20080312301A1, “Substituted N-Benzo[D]Isoxazol-3-Yl-Amine Compounds as Inhibitors of Mglur5, Serotonin (5-Ht) and Noradrenaline Receptors, and Uses Thereof” (Gruenenthal GmbH, priority 2005, published 2008)

Key:
[1] = biological target: T1, 5-HT uptake (serotonin reuptake) (Rattus norvegicus, UniProt P31652); assay: 5HT uptake inhibition in rat brain synaptosomes (medulla and pons), [3H]-5-HT; assay type: biochemical; details: for inhibition at 10 µM: conc. 10 μM
T1 construct: from tissue; host or cells: rat medulla and pons synaptosomes (P2 fraction)
From the text: (§1) I. Method for Determining the Noradrenaline and 5HT Uptake Inhibition:
(§2) For in vitro studies, synaptosomes were freshly isolated from rat brain areas as described in the publication “The isolation of nerve endings from brain” by E. G. Gray and V. P. Whittaker, J. Anatomy 96, pages 79-88, 1962. The corresponding literature description is introduced hereby as reference and forms part of the disclosure.
(§3) The tissue (hypothalamus for determining the noradrenaline uptake inhibition and medulla and pons for determining the 5HT uptake inhibition) was homogenized in ice-cold 0.32 M sucrose (100 mg of tissue/1 ml) in a glass homogenizer with Teflon pestle using five full up and down strokes at 840 revolutions/minute. The homogenate was centrifuged at 1000 g and at 4° C. for 10 minutes. After subsequent centrifugation at 17 000 g for 55 minutes, the synaptosomes (P2 fraction) are obtained and were resuspended in 0.32 M […] (0.5 ml/100 mg of the original weight).
(§4) The respective uptake was measured in a 96-well microtiter plate. The volume was 250 μl and incubation took place at room temperature (approx. 20-25° C.) under an O2 atmosphere.
(§5) The incubation time was 7.5 minutes for [^3H]-NA and 5 minutes for [^3H]-5-HT. The 96 samples were then filtered through a Unifilter GF/B® microtiter plate (Packard) and washed with […] of incubated buffer using a “Brabdel MPXRI-96T Cell Harvester”. The Unifilter GF/B plate was dried at 55° C. for 1 h. The plate was then sealed with a Back Seal® (Packard) and 35 μl of scintillation fluid were added per well (Ultima Gold®, Packard). After sealing with a top Seal® (Packard), the radioactivity was determined, after equilibrium had been reached (about 5 h), in a “Trilux 1450 Microbeta” (Wallac).
(§6) The amount of protein employed in the above determination corresponded to the value disclosed in the literature, as described for example in “Protein measurement with the folin phenol reagent”, Lowry et al., J. Biol. Chem., 193, 265-275, 1951. A detailed description of the method can also be found in the literature, for example from M. Ch. Frink, H.-H. Hennies, W. Engelberger, M. Haurand and B. Wilffert (1996) Arzneim.-Forsch./Drug Res. 46 (III), 11, 1029-1036. The corresponding literature descriptions are hereby introduced as reference and form part of the disclosure.

NA transporter = biological target: T2, NA transporter (Rattus norvegicus, UniProt Q63380); assay: Noradrenaline (NA) uptake inhibition in rat brain synaptosomes (hypothalamus), [3H]-NA; assay type: biochemical; details: for inhibition at 10 µM: conc. 10 μM
T2 construct: from tissue; host or cells: rat hypothalamus synaptosomes (P2 fraction)
From the text: as §1, §2, §3, §4, §5
The following characteristic data were found for the NA transporter:
as §6

mGluR5 receptor = biological target: T3, mGluR5 receptor (Sus scrofa, UniProt I3LUI7); assay: Affinity for the mGluR5 receptor: displacement of 3[H]-MPEP binding in pig brain homogenate; details: 10 μM compound, 5 nM 3[H]-MPEP
T3 construct: 450 μg of protein from brain homogenate are incubated with 5 nM^3[H]-MPEP; from tissue; host or cells: pig brain hemispheres without medulla, cerebellum and pons
Method: II. Method for Determining the Affinity for the mGluR5 Receptor
In each case 450 μg of protein from brain homogenate are incubated with 5 nM^3[H]-MPEP (Tocris, order No. R1212) (MPEP=2-methyl-6-[…]) and the compounds to be investigated (10 μM in the assay) in buffer (as above) in 250 μl incubation mixtures in 96-well microtiter plates at room temperature for 60 min.
The filter plates were then dried at 55° C. for 60 min.

T3 sequence (I3LUI7 19-1212): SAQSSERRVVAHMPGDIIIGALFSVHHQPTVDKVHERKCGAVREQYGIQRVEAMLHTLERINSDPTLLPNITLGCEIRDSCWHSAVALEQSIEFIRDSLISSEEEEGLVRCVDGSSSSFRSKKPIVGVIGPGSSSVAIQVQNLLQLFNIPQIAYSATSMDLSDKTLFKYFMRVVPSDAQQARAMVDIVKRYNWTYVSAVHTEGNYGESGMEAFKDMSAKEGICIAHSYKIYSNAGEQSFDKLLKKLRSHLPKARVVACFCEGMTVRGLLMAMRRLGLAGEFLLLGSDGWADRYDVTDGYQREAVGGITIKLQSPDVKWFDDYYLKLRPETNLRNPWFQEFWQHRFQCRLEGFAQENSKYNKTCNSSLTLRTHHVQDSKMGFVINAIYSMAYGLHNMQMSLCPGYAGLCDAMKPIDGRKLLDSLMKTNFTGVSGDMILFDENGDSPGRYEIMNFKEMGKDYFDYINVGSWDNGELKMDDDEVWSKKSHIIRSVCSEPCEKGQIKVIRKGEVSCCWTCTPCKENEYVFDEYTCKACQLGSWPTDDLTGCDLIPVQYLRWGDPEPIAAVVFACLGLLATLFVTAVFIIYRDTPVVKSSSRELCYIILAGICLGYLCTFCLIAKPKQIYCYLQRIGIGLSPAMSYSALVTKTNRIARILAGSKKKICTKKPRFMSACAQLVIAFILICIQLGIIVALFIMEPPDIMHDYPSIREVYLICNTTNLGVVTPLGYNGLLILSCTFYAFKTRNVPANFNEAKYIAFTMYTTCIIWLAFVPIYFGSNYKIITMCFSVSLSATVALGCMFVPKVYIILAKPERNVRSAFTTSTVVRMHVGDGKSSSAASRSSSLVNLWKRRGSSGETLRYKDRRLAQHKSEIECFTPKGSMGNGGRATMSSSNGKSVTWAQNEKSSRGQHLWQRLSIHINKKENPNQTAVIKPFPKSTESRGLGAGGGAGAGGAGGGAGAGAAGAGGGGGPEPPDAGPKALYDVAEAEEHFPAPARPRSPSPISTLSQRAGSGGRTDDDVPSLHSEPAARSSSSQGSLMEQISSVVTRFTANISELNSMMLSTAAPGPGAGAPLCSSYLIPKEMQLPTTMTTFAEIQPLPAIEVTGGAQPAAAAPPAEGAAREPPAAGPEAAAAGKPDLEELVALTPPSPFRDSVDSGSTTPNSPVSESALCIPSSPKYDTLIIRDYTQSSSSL
T1 sequence (P31652 whole entry): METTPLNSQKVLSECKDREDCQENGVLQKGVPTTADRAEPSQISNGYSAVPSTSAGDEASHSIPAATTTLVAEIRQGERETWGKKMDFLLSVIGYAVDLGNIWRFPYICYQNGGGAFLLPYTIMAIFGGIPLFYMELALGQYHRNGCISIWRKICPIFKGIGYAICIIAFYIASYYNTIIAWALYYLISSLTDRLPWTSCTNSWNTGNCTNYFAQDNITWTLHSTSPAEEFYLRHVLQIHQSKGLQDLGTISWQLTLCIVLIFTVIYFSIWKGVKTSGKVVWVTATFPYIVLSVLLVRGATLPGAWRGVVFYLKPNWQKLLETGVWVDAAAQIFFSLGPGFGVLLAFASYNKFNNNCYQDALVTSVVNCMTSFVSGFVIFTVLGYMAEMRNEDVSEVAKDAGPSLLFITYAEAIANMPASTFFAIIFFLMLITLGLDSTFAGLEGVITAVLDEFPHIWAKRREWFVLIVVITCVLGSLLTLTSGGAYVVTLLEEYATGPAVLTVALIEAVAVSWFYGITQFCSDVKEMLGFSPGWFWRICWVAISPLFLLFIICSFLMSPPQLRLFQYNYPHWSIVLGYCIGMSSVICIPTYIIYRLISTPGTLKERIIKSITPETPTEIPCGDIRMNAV
T2 sequence (Q63380 1-617): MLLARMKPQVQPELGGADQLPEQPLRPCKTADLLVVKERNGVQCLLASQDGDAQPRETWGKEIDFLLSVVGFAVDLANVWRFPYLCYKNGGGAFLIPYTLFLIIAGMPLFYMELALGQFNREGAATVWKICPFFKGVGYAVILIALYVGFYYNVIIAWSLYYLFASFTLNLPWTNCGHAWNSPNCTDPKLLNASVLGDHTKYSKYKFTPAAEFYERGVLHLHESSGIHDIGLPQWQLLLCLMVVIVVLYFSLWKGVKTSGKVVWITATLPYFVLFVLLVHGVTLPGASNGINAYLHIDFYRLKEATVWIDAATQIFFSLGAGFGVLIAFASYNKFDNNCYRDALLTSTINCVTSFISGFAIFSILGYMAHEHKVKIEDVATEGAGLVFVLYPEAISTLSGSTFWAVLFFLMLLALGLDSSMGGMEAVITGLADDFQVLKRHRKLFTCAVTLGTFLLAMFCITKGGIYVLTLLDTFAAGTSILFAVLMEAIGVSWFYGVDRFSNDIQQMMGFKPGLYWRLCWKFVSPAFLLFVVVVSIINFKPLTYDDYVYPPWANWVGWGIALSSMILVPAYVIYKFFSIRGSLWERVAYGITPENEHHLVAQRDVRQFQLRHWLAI

Molecule | inhibition at 10 µM [1] [%] | further results
O=C(Nc1noc2ccccc12)c1ccccc1C(F)(F)F [Example 13, N-benzo[d]isoxazol-3-yl-2-trifluoromethylbenzamide] | 84 | –
O=C(Nc1noc2ccccc12)c1ccc(Cl)c(Cl)c1 [Example 14, N-benzo[d]isoxazol-3-yl-3,4-dichlorobenzamide] | 69 | –
O=C(Nc1noc2ccccc12)c1cccc(F)c1F [Example 15, N-benzo[d]isoxazol-3-yl-2,3-difluorobenzamide] | 86 | –
CN(C)c1cccc2onc(NC(=O)c3cccc(F)c3)c12 [Example 16, N-(4-dimethylaminobenzo[d]isoxazol-3-yl)-3-fluorobenzamide] | 72 | –
O=C(Nc1noc2cc(F)ccc12)c1cccs1 [Example 17, thiophene-2-(6-fluorobenzo[d]isoxazol-3-yl)carboxamide] | – | 5 HT uptake inhibition [%] conc. 10 μM [1]: 77%
CCC(C)C(=O)Nc1noc2cc(F)ccc12 (stereo not drawn) [Example 18, N-(6-fluorobenzo[d]isoxazol-3-yl)-2-methylbutyramide] | 70 | –
O=C(Nc1noc2cc(Cl)ccc12)c1cccc(C(F)(F)F)c1F [Example 19, N-(6-chlorobenzo[d]isoxazol-3-yl)-2-fluoro-3-trifluoromethylbenzamide] | 77 | inhibition at 10 µM (NA transporter): 63%
COc1cccc(C(=O)Nc2noc3cc(Cl)ccc23)c1 [Example 20, N-(6-chlorobenzo[d]isoxazol-3-yl)-3-methoxybenzamide] | 77 | –
CC(C)(C)c1ccc(C(=O)Nc2noc3cc(Br)ccc23)cc1 [Example 21, N-(6-bromobenzo[d]isoxazol-3-yl)-4-tert-butylbenzamide] | 81 | –
COc1ccccc1C(=O)Nc1noc2cc(Br)ccc12 [Example 22, N-(6-bromobenzo[d]isoxazol-3-yl)-2-methoxybenzamide] | 79 | –
O=C(Nc1noc2cc(Br)ccc12)c1ccccc1C(F)(F)F [Example 23, N-(6-bromobenzo[d]isoxazol-3-yl)-2-trifluoromethyl benzamide] | – | 5 HT uptake inhibition [%] conc. 10 μM [1]: 86%
O=C(Nc1noc2cc(Br)ccc12)C1C2CC3CC(C2)CC1C3 (stereo not drawn) [Example 24, adamantane-2-(6-bromobenzo[d]isoxazol-3-yl)carboxamide] | – | 5 HT uptake inhibition [%] conc. 10 μM [1]: 79%
CCC(C)C(=O)Nc1noc2cc(Br)ccc12 (stereo not drawn) [Example 25, N-(6-bromobenzo[d]isoxazol-3-yl)-2-methylbutyramide] | 86 | –
O=C(Nc1noc2ccc(F)cc12)c1ccccc1C(F)(F)F [Example 26, N-(5-fluorobenzo[d]isoxazol-3-yl)-2-trifluoromethylbenzamide] | 82 | –
O=C(Nc1noc2ccc(F)cc12)c1ccc(Cl)c(Cl)c1 [Example 27, 3,4-dichloro-N-(5-fluorobenzo[d]isoxazol-3-yl)benzamide] | 89 | –
Cc1ccccc1C(=O)Nc1noc2ccc(F)cc12 [Example 28, N-(5-fluorobenzo[d]isoxazol-3-yl)-2-methylbenzamide] | 91 | inhibition at 10 µM (mGluR5 receptor): 35%
O=C(Nc1noc2ccc(Br)cc12)c1cc(C(F)(F)F)ccc1F [Example 29, N-(5-bromobenzo[d]isoxazol-3-yl)-2-fluoro-5-trifluoromethylbenzamide] | 83 | –
O=C(Nc1noc2ccc(Br)cc12)c1ccc(F)cc1F [Example 30, N-(5-bromobenzo[d]isoxazol-3-yl)-2,4-difluorobenzamide] | 79 | inhibition at 10 µM (mGluR5 receptor): 45.2%

Molecule | inhibition at 10 µM [1] [%] | further results
Cc1ccc2onc(NC(=O)c3ccccc3C(F)(F)F)c2c1 [Example 31, N-(5-methylbenzo[d]isoxazol-3-yl)-2-trifluoromethylbenzamide] | 69 | –
Cc1ccc2onc(NC(=O)c3cccc(F)c3)c2c1 [Example 32, 3-fluoro-N-(5-methylbenzo[d]isoxazol-3-yl)benzamide] | 89 | inhibition at 10 µM (mGluR5 receptor): 40.1%
COc1cccc2onc(NC(=O)c3cc(C(F)(F)F)cc(C(F)(F)F)c3)c12 [Example 33, N-(4-methoxybenzo[d]isoxazol-3-yl)-3,5-bistrifluoromethyl benzamide] | – | 5 HT uptake inhibition [%] conc. 10 μM [1]: 85%
COc1cccc2onc(NC(=O)c3cc(F)cc(F)c3)c12 [Example 34, 3,5-difluoro-N-(4-methoxybenzo[d]isoxazol-3-yl)benzamide] | 78 | –
CN(C)c1cccc2onc(NC(=O)c3cc(C(F)(F)F)cc(C(F)(F)F)c3)c12 [Example 35, N-(4-dimethylaminobenzo[d]isoxazol-3-yl)-3,5-bistrifluoromethylbenzamide] | 86 | –
O=C(Nc1noc2cccc(OCC(F)(F)F)c12)c1ccccc1Br [Example 36, 2-bromo-N-[4-(2,2,2-trifluoroethoxy)benzo[d]isoxazol-3-yl]benzamide] | 84 | inhibition at 10 µM (mGluR5 receptor): 30.3%
O=C(Nc1noc2cccc(OCC(F)(F)F)c12)c1cccc(Cl)c1 [Example 37, 3-chloro-N-[4-(2,2,2-trifluoroethoxy)benzo[d]isoxazol-3-yl]benzamide] | 90 | –
CC(C)(C)c1ccc(C(=O)Nc2noc3cccc(OCC(F)(F)F)c23)cc1 [Example 38, 4-tert-butyl-N-[4-(2,2,2-trifluoroethoxy)benzo[d]isoxazol-3-yl]benzamide] | 77 | –
COc1ccccc1C(=O)Nc1noc2cccc(OCC(F)(F)F)c12 [Example 39, 2-methoxy-N-[4-(2,2,2-trifluoroethoxy)benzo[d]isoxazol-3-yl]benzamide] | 82 | inhibition at 10 µM (mGluR5 receptor): 30.5%
O=C(Nc1noc2cc(Br)ccc12)c1ccc(F)c(F)c1 [Example 49, N-(6-bromobenzo[d]isoxazol-3-yl)-3,4-difluorobenzamide] | – | inhibition at 10 µM (NA transporter): 65%; inhibition at 10 µM (mGluR5 receptor): 36.9%
CN(C)c1cccc2onc(NC(=O)C3CCCCC3)c12 [Example 73, cyclohexane-(4-dimethylaminobenzo[d]isoxazol-3-yl)carboxamide] | – | NA uptake inhibition [%] conc. 10 μM (NA transporter): 70%; mGluR5 receptor inhibition of the 3[H]-MPEP binding in % (10 μM) (mGluR5 receptor): 30.05%
O=C(Nc1noc2cccc(OCC(F)(F)F)c12)c1ccc(F)cc1C(F)(F)F [Example 77, 4-fluoro-N-[4-(2,2,2-trifluoroethoxy)benzo[d]isoxazol-3-yl]-2-trifluoromethyl-benzamide] | – | inhibition at 10 µM (NA transporter): 70%; inhibition at 10 µM (mGluR5 receptor): 38%
O=C(Nc1noc2cccc(OCC(F)(F)F)c12)c1ccc(F)c(F)c1F [Example 80, 2,3,4-trifluoro-N-[4-(2,2,2-trifluoroethoxy)benzo[d]isoxazol-3-yl]benzamide] | – | inhibition at 10 µM (NA transporter): 66%
O=C(Nc1noc2cccc(OCC(F)(F)F)c12)c1ccc2ccccc2c1 [Example 81, naphthalene-2-[4-(2,2,2-trifluoroethoxy)benzo[d]isoxazol-3-yl]carboxamide] | – | NA uptake inhibition [%] conc. 10 μM (NA transporter): 65%
O=C(Nc1noc2cccc(OCC(F)(F)F)c12)c1ccc(F)c(F)c1 [Example 82, 3,4-difluoro-N-[4-(2,2,2-trifluoroethoxy)benzo[d]isoxazol-3-yl]benzamide] | – | inhibition at 10 µM (NA transporter): 68%; inhibition at 10 µM (mGluR5 receptor): 42%
O=C(Nc1noc2cccc(OCC(F)(F)F)c12)c1cccc(C(F)(F)F)c1F [Example 83, 2-fluoro-N-[4-(2,2,2-trifluoroethoxy)benzo[d]isoxazol-3-yl]-3-trifluoromethyl-benzamide] | – | inhibition at 10 µM (NA transporter): 65%
furan-2-(4-dimethylaminobenzo[d]isoxazol-3-yl)carboxamide [Example 75] | – | NA uptake inhibition [%] conc. 10 μM (NA transporter): 64%
